Results: article PMC4534092, “Novel Penicillin Analogues as Potential Antimicrobial Agents; Design, Synthesis and Docking Studies” (PLoS ONE, 2015)

Target: MurC (UDP-N-acetylmuramic acid:L-alanine ligase) (Escherichia coli, UniProt P17952)
Experiment: Malachite green phosphate detection enzyme assay with […] MurC
Format: biochemical

Sequence of MurC (UDP-N-acetylmuramic acid:L-alanine ligase) (P17952 whole entry): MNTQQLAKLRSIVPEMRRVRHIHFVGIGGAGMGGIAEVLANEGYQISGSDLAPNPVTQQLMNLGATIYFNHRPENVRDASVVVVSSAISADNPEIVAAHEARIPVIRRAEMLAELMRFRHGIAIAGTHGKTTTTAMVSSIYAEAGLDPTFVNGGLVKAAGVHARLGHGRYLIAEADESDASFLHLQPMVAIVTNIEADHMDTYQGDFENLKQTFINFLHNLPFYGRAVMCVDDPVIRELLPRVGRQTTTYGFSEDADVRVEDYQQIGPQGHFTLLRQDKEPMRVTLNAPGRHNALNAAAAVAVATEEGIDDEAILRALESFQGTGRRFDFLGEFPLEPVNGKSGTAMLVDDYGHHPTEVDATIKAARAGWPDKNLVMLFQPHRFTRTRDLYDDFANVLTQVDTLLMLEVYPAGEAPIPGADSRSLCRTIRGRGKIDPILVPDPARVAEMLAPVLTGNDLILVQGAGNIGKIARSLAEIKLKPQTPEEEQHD

SMILES | IC50
COc1ccc2cc(C(C)C(=O)NC3C(=O)N4C3SC(C)(C)C4C(=O)O)ccc2c1 [4e, (2S,5R,6S)-6-(3'-(11'-methoxynaphthalen-5'-yl)propanamido)-3,3-dimethyl-7-oxo-4-thia-1-azabicyclo[3.2.0]heptane-2-carboxylic acid] | 12.5 µM
Nc1ncnc2c1ncn2[C@@H]1O[C@H](COP(=O)(O)OP(=O)(O)CP(=O)(O)O)[C@@H](O)[C@H]1O [AMP-PCP] | 17 µM
